What was measured:
[1] = test system: dopamine autoreceptor; assay: GBL model: effect on synthesis of dopamine (inhibition of dopa accumulation); format: in vivo, rat (male, Sprague-Dawley); conditions: rat, 10 mg/kg, sc; GBL 750 mg/kg ip, NSD-1015 100 mg/kg ip
Method: The effect of the compounds of the invention on the synthesis of dopamine was established by the method of Walters and Roth, Naunyn-Schmiedeberg's Arch. Pharmacol. 296:5-14, 1976, in which rats (male, Sprague-Dawley, Charles River, 200-350 g) were administered vehicle or test drug ten minutes prior to the administration of gamma butyrolactone (GBL; 750 mg/kg, ip to inhibit dopaminergic impulse flow) and 20 minutes prior to NSD-1015 (100 mg/kg, ip to prevent the conversion of dopa to dopamine). Thirty minutes after NSD-1015 all rats were decapitated and the nucleus accumbens and the striatum were removed for analysis. Following perchloric acid extraction of the tissue, the extracts were placed over alumina columns to collect and concentrate dopa and other catechols. This eluate was then subjected to HPLC analysis using electrochemical detection to quantify the levels of dopa present. Dopamine autoreceptor agonists, under the conditions used above, inhibit dopa accumulation. […]

[2] = target: T1, dopamine D2 receptor (Rattus norvegicus, UniProt P61169); assay: Affinity for the dopamine D2 receptor (3H-quinpirole, rat striatal brain tissue homogenate); format: binding; conditions: homogenized rat striatal brain tissue
T1 construct: homogenized rat striatal brain tissue; from tissue; host or cells: rat striatum (homogenate)
T1 sequence (P61169 whole entry): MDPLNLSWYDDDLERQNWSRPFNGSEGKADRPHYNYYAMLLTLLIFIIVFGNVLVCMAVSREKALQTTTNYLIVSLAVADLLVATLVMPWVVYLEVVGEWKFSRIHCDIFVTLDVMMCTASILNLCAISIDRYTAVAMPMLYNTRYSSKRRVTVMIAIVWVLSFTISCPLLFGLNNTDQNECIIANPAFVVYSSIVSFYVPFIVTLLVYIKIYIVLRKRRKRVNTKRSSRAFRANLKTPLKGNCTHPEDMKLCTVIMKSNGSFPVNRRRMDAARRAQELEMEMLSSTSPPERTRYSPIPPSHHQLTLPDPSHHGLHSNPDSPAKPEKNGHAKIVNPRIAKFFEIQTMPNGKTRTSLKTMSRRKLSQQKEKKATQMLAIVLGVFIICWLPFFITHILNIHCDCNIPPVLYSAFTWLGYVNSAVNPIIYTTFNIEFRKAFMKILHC
Method: Affinity for the dopamine D2 receptor was established by a modification of the standard experimental test procedure of Seemen and Schaus, European Journal of Pharmacology 203: 105-109, 1991, wherein homogenized rat striatal brain tissue is incubated with ^3 H-quinpirole and various concentrations of test compound, filtered and washed and counted in a Betaplate scintillation counter.

[3] = test system: mouse locomotor activity; assay: Reduction of mouse locomotor activity (hypolocomotion); format: in vivo, mouse (male, CF-1); conditions: 20 min, sc, horizontal activity counts collected 10 to 20 minutes after dosing
Method: The antipsychotic activity of the compounds of the invention was further established by a determination of the compounds' ability to reduce mouse locomotor activity according to the method of Martin and Bendensky, J. Pharmacol. Exp. Therap. 229: 706-711, 1984, in which mice (male, CF-1, Charles River, 20-30 g) were injected with vehicle or various doses of each drug and locomotor activity was measured for 30 minutes using automated infrared activity monitors (Omnitech-8×8 inch open field) located in a darkened room. ED50 's were calculated from the horizontal activity counts collected from 10 to 20 minutes after dosing using a nonlinear regression analysis with inverse prediction.

| IC50 [2] [nM] | Structure (SMILES) | inhibition of dopa accumulation [1] [%] | ED50 [3] [mg/kg] |
| --- | --- | --- | --- |
| 0.37 | O=C1Cc2c(ccc3c2O[C@@H](CNCc2ccccc2)CO3)N1 [Example 1] | 67.5 | 0.0031 |
| 0.78 | O=C1Cc2c(c(F)cc3c2O[C@@H](CNCCCc2c[nH]c4ccccc24)CO3)N1 [Example 39, 6-Fluoro-2-{[3-(1H-indol-3-yl)-propylamino]-methyl}-2,3,8,9-tetrahydro-7H-1,4-dioxino[2,3-e]indol-8-one] | – | 0.064 |

From patent US5756532A, “Aminomethyl-2 3 8 9-tetrahydro-7H-1 4-dioxino[2 3-E]-indol-8-ones and derivatives” (American Home Products Corporation, priority 1996, dated 1998)
